Results reported in PMC4245125, “Pharmacological and Behavioral Characterization of D-473, an Orally Active Triple Reuptake Inhibitor Targeting Dopamine, Serotonin and Norepinephrine Transporters” (PLoS ONE, 2014).
“Also recorded” adds a separate entry of the source.

Columns and labels:
BZP Rat Brain Site = experiment: NIMH PDSP receptor binding, BZP Rat Brain Site; settings: 3H-Flunitrazepam
Alpha2A = target: T1, Alpha2A (Homo sapiens, UniProt P08913); experiment: NIMH PDSP receptor binding, Alpha2A; settings: [3H]Clonidine, read-out: % Inhibition of Binding at 10 µM D-473
T1 construct: purchased NIMH PDSP

[1] = system: locomotor activity (horizontal activity); experiment: Locomotor activity in rats; type: in vivo; settings: rat; 25 mg/kg oral; 2 h post administration; vs vehicle
Experimental: Sprague Dawley Rats were tested at 25 mg/kg oral dose of D-473 to monitor changes in any locomotor activity in acrylic Auto-Track/Opto-Varimex-4 System (Columbus Instrument; Columbus, Ohio). The purpose was to evaluate locomotor activity of the same doses of drug that were used in the forced swim test. Rats were acclimated in the test chambers for 1 h prior to oral administration of D-473. Locomotor activity of the drug was measured for a total of two hour post administration of the drug which corresponded to the time of measurement in the forced swimming experiment. GBR 12909 was studied as a control drug known to stimulate and was administered i.p. as in published studies; vehicle was orally administered.

Alpha1D = target: T2, Alpha1D (Homo sapiens, UniProt P25100); experiment: NIMH PDSP receptor binding, Alpha1D; settings: [3H]Prazosin, read-out: % Inhibition of Binding at 10 µM D-473
T2 construct: purchased NIMH PDSP

5HT1e = target: T3, 5HT1e (Homo sapiens, UniProt P28566); experiment: NIMH PDSP receptor binding, 5HT1e; settings: [3H]5-HT, read-out: % Inhibition of Binding at 10 µM D-473
T3 construct: purchased NIMH PDSP

5HT1a = target: T4, 5HT1a (Homo sapiens, UniProt P08908); experiment: NIMH PDSP receptor binding, 5HT1a; settings: [3H]8-OH-DPAT, read-out: % Inhibition of Binding at 10 µM D-473
T4 construct: purchased NIMH PDSP

H1 = target: T5, H1 (Homo sapiens, UniProt P35367); experiment: NIMH PDSP receptor binding, H1; settings: [3H]Pyrilamine, read-out: % Inhibition of Binding at 10 µM D-473
T5 construct: purchased NIMH PDSP

M1 = target: T6, M1 (Homo sapiens, UniProt P11229); experiment: biochemical; settings: read-out: % Inhibition of Binding at 10 µM D-473
T6 construct: purchased NIMH PDSP

duration of immobility = experiment: Forced swim test in rats after oral administration; type: in vivo; settings: rat, sub-chronic
Experimental: The experiment was carried out in the same way as described in our previous publications according to the Porsolt protocol, [30]. The subjects were male Sprague Dawley rats (Harlam Sprague Dawley Inc., Indianapolis, Ind., USA) weighing 200–225 g housed in cages for at least 1 week prior to testing. Animals were maintained in a temperature-controlled environment under a 12 hr light-dark cycle. All subjects were naive and were used only once. Rats were transported to the testing room at least for one hour prior to testing for acclimatization and adaptation purposes. Experimental sessions were conducted between 9 AM to 2 PM daily. Animals were assigned randomly and were placed individually in a glass cylinder (24.5 cm×35.5 cm) filled with water at room temperature to a depth of 22 cm. All the test sessions were recorded by video cameras. The water was changed in the beginning of each session and the temperature was maintained constant at 24–25°C. Rats were judged to be immobile if they made only minimal movement, barely keeping afloat. The test procedure consisted of a pretest and test session separated by 24 h. During the pretest period, rats were placed in the swim chamber for 15 min. Followed by the initial swim exposure; rats were patted dry and were transferred to the individual cages. Drugs or vehicle were then orally administered (p.o) 15 min after the initial swim exposure and were then transported to their home cages. On the following day the rats were brought back to the testing room at least 1 h before the beginning of test session. Rats were administered either drugs or vehicle 1 h before the swim test. Each rat underwent a 5-min swim session, which was videotaped and scored later. In the case of imipramine, pretreatment time was 30 min. Drug solutions were prepared freshly on the test days. Compound D-473 was dissolved in 3% beta-hydroxy propyl cyclodextrin solution. All drug and vehicle preparations were administered orally. D-473 was administered at a dose of 5, 10, 25 and 50 mg/kg and the volume was maintained at 1.2 mL/rat. Drug or vehicle was administered 1 h prior to testing for forced swimming. An individual, blinded to the treatment, scored the videotapes for immobility. Immobility scores were analyzed by one way ANOVA test. Behavioral results were analyzed with Prism 6.0 (GraphPad Software, San Diego, CA). The immobility time for forced swimming test was analyzed by one-way ANOVA (analysis of variance) followed by post Dunnett’s multiple comparison test vs. vehicle. Data for vehicle was used as negative control, respectively. Statistical significance was assumed in analysis if p≤0.05.

hSERT = hSERT (Homo sapiens, UniProt P31645); experiment: Inhibition of [3H]5-HT uptake by cloned human SERT in HEK293 cells
5HT5a = target: T7, 5HT5a (Homo sapiens, UniProt P47898); experiment: NIMH PDSP receptor binding, 5HT5a; settings: [3H]LSD, read-out: % Inhibition of Binding at 10 µM D-473
T7 construct: purchased NIMH PDSP

M5 = target: T8, M5 (Homo sapiens, UniProt P08912); experiment: biochemical; settings: read-out: % Inhibition of Binding at 10 µM D-473
T8 construct: purchased NIMH PDSP

5HT2a = target: T9, 5HT2a (Homo sapiens, UniProt P28223); experiment: NIMH PDSP receptor binding, 5HT2a; settings: [3H]ketanserin, read-out: % Inhibition of Binding at 10 µM D-473
T9 construct: purchased NIMH PDSP
T9 sequence (P28223 whole entry): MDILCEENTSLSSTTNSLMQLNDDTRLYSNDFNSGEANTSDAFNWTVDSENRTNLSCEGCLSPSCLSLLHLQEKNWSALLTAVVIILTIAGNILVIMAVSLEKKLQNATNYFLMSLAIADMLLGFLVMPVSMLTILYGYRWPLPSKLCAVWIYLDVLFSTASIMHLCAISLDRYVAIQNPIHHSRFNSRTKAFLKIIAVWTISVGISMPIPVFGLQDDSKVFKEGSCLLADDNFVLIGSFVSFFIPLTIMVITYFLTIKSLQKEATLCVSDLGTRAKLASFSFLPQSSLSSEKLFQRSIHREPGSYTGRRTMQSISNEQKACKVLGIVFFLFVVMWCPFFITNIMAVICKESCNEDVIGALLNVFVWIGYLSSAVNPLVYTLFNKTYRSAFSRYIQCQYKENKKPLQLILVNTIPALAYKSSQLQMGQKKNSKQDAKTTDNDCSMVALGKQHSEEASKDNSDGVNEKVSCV

Sequence of hSERT (P31645 whole entry): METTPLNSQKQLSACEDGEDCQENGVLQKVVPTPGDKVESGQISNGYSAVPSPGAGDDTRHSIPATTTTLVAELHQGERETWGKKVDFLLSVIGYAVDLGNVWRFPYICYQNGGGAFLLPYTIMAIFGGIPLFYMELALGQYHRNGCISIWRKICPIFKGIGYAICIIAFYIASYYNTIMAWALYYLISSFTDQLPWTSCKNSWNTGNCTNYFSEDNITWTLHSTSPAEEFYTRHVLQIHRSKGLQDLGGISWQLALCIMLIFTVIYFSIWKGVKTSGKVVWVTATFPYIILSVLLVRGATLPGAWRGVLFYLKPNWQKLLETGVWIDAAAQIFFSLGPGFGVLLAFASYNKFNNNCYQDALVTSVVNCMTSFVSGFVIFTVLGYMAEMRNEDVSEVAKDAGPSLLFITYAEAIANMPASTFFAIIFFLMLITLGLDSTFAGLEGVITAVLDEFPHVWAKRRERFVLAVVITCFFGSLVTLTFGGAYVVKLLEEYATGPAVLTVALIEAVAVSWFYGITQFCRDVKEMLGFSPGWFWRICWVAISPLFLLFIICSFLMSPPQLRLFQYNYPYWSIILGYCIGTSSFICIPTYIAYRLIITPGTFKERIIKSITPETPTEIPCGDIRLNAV
T6 sequence (P11229 whole entry): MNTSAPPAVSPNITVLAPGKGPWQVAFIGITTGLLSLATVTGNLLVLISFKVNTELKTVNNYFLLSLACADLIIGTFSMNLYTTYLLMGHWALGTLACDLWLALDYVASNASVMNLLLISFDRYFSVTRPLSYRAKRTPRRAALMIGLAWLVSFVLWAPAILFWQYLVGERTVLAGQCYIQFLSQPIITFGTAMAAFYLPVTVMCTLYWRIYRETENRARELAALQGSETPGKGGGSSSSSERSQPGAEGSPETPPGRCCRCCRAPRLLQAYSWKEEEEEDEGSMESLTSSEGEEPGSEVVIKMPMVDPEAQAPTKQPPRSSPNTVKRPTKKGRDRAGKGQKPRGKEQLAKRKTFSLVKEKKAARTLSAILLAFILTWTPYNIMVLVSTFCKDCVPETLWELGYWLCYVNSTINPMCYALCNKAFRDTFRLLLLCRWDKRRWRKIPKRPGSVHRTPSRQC
T5 sequence (P35367 whole entry): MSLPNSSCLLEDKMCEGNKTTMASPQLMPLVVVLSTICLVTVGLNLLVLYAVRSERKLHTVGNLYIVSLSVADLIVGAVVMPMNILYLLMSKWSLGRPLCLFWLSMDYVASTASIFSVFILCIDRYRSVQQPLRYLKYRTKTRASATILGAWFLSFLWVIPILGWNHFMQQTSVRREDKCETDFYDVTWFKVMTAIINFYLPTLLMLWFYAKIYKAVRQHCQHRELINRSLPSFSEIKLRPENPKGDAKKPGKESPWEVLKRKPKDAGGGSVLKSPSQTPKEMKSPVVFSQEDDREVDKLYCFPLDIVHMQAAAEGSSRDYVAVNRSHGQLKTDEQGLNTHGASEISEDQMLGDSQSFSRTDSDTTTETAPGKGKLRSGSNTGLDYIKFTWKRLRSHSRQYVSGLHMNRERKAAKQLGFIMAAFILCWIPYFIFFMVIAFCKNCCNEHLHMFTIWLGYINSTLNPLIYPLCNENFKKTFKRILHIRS
T8 sequence (P08912 whole entry): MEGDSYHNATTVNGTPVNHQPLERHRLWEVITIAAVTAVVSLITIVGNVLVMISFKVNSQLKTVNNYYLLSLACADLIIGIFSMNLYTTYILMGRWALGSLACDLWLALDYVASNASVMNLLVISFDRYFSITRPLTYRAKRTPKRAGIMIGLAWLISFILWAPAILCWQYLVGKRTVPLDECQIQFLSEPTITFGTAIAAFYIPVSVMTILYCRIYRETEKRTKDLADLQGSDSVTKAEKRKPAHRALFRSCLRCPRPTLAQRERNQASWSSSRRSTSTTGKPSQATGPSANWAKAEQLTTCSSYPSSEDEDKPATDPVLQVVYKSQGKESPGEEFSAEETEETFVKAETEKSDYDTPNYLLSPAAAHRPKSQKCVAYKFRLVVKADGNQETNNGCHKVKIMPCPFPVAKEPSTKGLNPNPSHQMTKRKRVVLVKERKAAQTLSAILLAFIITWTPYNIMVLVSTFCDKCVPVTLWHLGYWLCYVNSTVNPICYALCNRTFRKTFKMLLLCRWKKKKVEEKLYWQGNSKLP
T4 sequence (P08908 whole entry): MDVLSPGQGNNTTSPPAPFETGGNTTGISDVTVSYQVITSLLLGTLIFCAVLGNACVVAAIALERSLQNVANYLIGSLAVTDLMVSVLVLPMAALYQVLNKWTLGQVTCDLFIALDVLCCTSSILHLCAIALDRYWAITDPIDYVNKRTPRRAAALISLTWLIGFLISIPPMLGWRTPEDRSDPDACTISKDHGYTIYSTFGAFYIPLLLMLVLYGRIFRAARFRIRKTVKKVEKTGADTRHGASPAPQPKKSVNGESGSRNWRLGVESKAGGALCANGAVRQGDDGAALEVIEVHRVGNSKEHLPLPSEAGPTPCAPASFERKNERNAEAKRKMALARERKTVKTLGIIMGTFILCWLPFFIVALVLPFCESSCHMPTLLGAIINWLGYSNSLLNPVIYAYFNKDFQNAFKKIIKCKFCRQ
T2 sequence (P25100 whole entry): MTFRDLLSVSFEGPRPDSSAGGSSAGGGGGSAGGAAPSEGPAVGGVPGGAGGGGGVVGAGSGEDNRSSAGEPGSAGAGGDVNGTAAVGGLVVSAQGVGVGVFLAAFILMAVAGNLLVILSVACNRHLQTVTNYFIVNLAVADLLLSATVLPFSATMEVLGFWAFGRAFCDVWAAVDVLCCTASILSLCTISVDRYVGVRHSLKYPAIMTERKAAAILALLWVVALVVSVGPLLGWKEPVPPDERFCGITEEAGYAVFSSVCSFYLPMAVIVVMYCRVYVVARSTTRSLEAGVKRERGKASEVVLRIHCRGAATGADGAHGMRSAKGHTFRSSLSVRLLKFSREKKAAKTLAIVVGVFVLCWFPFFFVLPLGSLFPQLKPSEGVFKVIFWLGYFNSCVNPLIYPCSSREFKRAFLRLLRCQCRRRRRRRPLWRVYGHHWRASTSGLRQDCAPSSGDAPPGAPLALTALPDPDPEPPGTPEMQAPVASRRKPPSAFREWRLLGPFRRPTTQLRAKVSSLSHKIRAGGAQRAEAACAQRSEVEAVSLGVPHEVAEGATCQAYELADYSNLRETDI
T1 sequence (P08913 whole entry): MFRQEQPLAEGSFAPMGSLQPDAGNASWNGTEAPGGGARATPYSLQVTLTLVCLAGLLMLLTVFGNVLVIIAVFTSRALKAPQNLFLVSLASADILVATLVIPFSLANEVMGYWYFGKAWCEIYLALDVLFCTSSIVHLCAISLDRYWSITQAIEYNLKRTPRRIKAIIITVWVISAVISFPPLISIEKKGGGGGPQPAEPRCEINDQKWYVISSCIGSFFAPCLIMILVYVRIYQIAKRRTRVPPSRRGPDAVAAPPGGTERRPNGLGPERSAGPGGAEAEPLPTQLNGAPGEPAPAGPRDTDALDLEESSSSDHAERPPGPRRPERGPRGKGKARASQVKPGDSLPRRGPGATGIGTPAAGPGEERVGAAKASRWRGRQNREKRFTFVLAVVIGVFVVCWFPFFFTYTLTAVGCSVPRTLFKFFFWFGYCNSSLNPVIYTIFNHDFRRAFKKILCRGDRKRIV
T7 sequence (P47898 whole entry): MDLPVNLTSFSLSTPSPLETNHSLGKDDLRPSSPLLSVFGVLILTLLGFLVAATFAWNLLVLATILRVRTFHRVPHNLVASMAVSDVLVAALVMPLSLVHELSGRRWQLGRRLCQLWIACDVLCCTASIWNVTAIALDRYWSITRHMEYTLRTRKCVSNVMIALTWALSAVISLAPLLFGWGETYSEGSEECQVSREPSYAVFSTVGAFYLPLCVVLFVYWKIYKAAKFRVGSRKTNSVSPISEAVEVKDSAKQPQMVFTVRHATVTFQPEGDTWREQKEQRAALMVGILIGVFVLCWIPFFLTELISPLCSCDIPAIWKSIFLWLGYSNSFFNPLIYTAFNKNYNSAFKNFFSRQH
T3 sequence (P28566 whole entry): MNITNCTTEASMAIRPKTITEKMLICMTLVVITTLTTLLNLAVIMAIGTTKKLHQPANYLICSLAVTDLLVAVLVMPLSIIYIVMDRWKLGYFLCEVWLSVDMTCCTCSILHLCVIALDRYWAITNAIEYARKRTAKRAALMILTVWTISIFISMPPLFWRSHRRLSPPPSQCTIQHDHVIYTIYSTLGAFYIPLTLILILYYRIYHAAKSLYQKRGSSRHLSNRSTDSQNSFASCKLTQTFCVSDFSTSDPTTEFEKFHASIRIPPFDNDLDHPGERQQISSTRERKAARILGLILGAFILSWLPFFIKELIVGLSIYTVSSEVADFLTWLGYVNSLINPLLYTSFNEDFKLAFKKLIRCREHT

`COc1ccc(CN[C@@H]2CO[C@H](C(c3ccc(F)cc3)c3ccc(F)cc3)C[C@H]2O)cc1` [Compound D-473, (2S,4R,5R)-2-(bis(4-fluorophenyl)methyl)-5-((4-methoxybenzyl)amino)tetrahydro-2H-pyran-4-ol] was tested, and the “% Inhibition of Binding at 10 µM D-473” value (BZP Rat Brain Site) was −3%, the inhibition at 10 µM (Alpha2A) was 14.5% and the “Locomotor activity (horizontal activity)” value [1] was “statistically indistinguishable from vehicle”. The inhibition at 10 µM (Alpha1D) was 41.8%, the inhibition at 10 µM (5HT1e) was 38% and the inhibition at 10 µM (5HT1a) was 35.4%. For the same compound, the inhibition at 10 µM (H1) was 2.8%, the inhibition at 10 µM (M1) was 15% and the “Duration of immobility in the forced swimming test” value (“Duration of immobility” below) (duration of immobility; 5 mg/kg p.o., vs vehicle) was “did not produce significant reduction in immobility”. For the same compound, the “Duration of immobility” value (duration of immobility; 10 mg/kg p.o., vs vehicle (P<0.01), 10 mg/kg) was “robust, statistically significant effect; also recorded: statistically significant different compared to vehicle”, the “Duration of immobility” value (duration of immobility; 25 mg/kg p.o., vs vehicle (P<0.01)) was “statistically significant different compared to vehicle” and the “Duration of immobility” value (duration of immobility; 50 mg/kg p.o., vs vehicle (P<0.01)) was “statistically significant different compared to vehicle”. The Ki (hSERT) was 9.18 ± 1.69 nM, the “Potency at SERT relative to Fluoxetine” value (hSERT; hSERT uptake inhibition) was “almost one and a half fold greater” and the inhibition at 10 µM (5HT5a) was 19.5%. For the same compound, the inhibition at 10 µM (M5) was 3.2% and the inhibition at 10 µM (5HT2a) was 16.3%.
